The numbers were not newly measured in patent US6673908B1, “Tumor necrosis factor receptor 2” (Nuvelo, Inc., priority 1999, dated 2004), which cites them from elsewhere.

Where a name gives a salt, the structure may show the parent alone. Read-outs that look alike come from different tables or passages of the source.

Data set [1] has as its system advanced colorectal cancer.
The next data set concerns CD3 lymphocytes. To be noted: in vivo.
The target in another data set is T1, 5-lipoxygenase (5-LO) (Homo sapiens, UniProt P09917).
T1 construct: host or cells: asthma patients (in vivo, endogenous enzyme)
T1 sequence (P09917 1-674): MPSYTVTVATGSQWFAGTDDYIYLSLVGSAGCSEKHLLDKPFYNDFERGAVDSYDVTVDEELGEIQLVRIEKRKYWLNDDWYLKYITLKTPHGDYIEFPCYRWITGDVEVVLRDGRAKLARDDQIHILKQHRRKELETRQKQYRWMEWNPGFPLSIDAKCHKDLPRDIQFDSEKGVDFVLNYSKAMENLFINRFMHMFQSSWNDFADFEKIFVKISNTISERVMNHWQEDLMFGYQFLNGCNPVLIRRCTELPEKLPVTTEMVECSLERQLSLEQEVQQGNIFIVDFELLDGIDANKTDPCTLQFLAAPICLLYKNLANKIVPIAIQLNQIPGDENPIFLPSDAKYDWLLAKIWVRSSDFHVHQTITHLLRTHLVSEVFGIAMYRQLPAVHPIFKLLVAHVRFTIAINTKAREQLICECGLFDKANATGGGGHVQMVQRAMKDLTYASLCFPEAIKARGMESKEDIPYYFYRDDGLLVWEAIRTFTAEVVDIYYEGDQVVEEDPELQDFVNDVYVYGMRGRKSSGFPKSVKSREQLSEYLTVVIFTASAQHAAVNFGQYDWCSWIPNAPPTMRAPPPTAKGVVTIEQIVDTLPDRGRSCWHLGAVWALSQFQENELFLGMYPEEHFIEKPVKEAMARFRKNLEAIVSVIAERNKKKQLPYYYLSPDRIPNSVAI
The following applies: for FEV1, % change from baseline: high dose.

As to interferon alpha, in the data set on hepatitis C virus (HCV) (hepatitis C virus infection), the “patients in whom viral infection is completely and permanently eliminated” value was “less than a quarter of patients”; the “patients receiving virtually no benefit” value is recorded as “Nearly half of patients”. In addition, in the data set on hepatitis C virus (HCV) (patients with HCV genotype 1 (especially 1b)), the response rates result is “under 10%”. In addition, the response rates result in the data set with hepatitis C virus (HCV) (patients with HCV genotype 2 or 3) is listed as “greater than 40%”.
With `COc1ccc(CC(C)NCC(O)c2ccc(O)c(NC=O)c2)cc1` (stereo not shown) [Formoterol], the “Degree of Brochodilator Desensitisation after Formoterol Therapy: 6 Hour FEF25-75” value in the data set with β2-adrenergic receptor (Arg 16 (n = 4)) is 23%; in the data set on β2-adrenergic receptor (Gln27 (n = 5)), 38%; in the data set on β2-adrenergic receptor (Glu/Gln27 (n = 11)), 70%; in the data set on β2-adrenergic receptor (Gly 16 (n = 10)), 103%; in the data set with β2-adrenergic receptor (Gly/Arg 16 (n = 8)), 70%. The “Degree of Brochodilator Desensitisation after Formoterol Therapy: 6 hour FEV1” value with β2-adrenergic receptor (Arg 16 (n = 4)) is 28%; with β2-adrenergic receptor (Gln27 (n = 5)), 47%; with β2-adrenergic receptor (Glu/Gln27 (n = 11)) it was 65%; with β2-adrenergic receptor (Gly 16 (n = 10)), 80%; in the data set on β2-adrenergic receptor (Gly/Arg 16 (n = 8)), 57%. Also, the “Degree of Brochodilator Desensitisation after Formoterol Therapy: Maximal FEF25-75” value in the data set on β2-adrenergic receptor (Arg 16 (n = 4)) is listed as −35%; in the data set with β2-adrenergic receptor (Gln27 (n = 5)) it was −15%; in the data set on β2-adrenergic receptor (Glu/Gln27 (n = 11)), 45%; in the data set on β2-adrenergic receptor (Gly 16 (n = 10)), 73%; with β2-adrenergic receptor (Gly/Arg 16 (n = 8)) it was 50%. Moreover, the “Degree of Brochodilator Desensitisation after Formoterol Therapy: Maximal FEV1” value is listed as −8% with β2-adrenergic receptor (Arg 16 (n = 4)); 3% with β2-adrenergic receptor (Gln27 (n = 5)); 52% with β2-adrenergic receptor (Glu/Gln27 (n = 11)); 48% in the data set with β2-adrenergic receptor (Gly 16 (n = 10)); 48% with β2-adrenergic receptor (Gly/Arg 16 (n = 8)). In addition, the figures for the “mean FEV1 desensitisation” value in the data set with β2-adrenergic receptor (Arg16 homozygotes) and in the data set on β2-adrenergic receptor (Gly16 homozygotes) were 28% and 80%, respectively.
Turning to `Nc1c2c(nc3ccccc13)CCCC2` [Cognex, tacrine hydrochloride], the “patients showing no change or minimal worsening of their disease” value (Alzheimer's disease patients) is given as “about 45%”. For the same compound, for the setting “Alzheimer's patients”, the patients minimally improved entry is “About 58%” and the patients much improved entry is recorded as “about 2%”.
Turning to `O=c1[nH]cc(F)c(=O)[nH]1` [5-fluorouracil], in data set [1], the “patients with a complete response (complete tumor disappearance)” value is recorded as 1-5% and the “patients with an objective response” value is on record as 20-40%.
As to “Monoclonal antibody: murine monoclonal antibody to deplete the circulating CD3 lymphocytes; reacts with the T3 recognition site of T-lymphocytes”, in the data set on CD3 lymphocytes, the sensitization rate was 15-40% and the “treated patients producing human anti-mouse antibodies (HAMA)” value is on record as 80%.
In the case of `C[C@H](C#Cc1ccc(Cc2ccc(F)cc2)s1)N(O)C(N)=O` [ABT-761], the “FEV1, % change from baseline” value at 5-lipoxygenase (5-LO) (Mutant, Day 8) is given as 1.8%; on 5-lipoxygenase (5-LO) (Mutant, Day 84) it was 5%; on 5-lipoxygenase (5-LO) (Wild type, Day 8) it was 8.2%; at 5-lipoxygenase (5-LO) (Wild type, Day 84) it was 18.5%. In addition, the “improvement of forced expiratory volume” value at 5-lipoxygenase (5-LO) (heterozygous patients, high-dose active treatment, within one week) is recorded as 23.3±6.0%; at 5-lipoxygenase (5-LO) (patients with mutant genotype, active 5-LO inhibitor treatment), −1.2±2.9%; on 5-lipoxygenase (5-LO) (wild-type patients, high-dose active treatment) it was 18.8±3.6%.
